In patent publication US12416008B2, “Compositions and methods of use for small-molecule regulation of CRISPR-Cas9 activity using RNA aptamers” (priority 2019, dated 2025):
Marks after values point to notes of the source that are not given here.

B1: agRNAs created by Liu et al.: agRNAs created by Liu et al., designed to regulate gene expression via CRISPRi; SEQ ID NO: 74 (nucleic acid)
guide: ATGATAAAGCTGCTGCAATAGTTTTAGAGCTAGAAATAGCAAGTTAAAATAAGGCTAGTCCGTTATCAACTTGAAAAAGTGGCACCGAGTCGGTGCCAGCAGCTTTATCATATACCACGCGAAAGCGCCTTGGCAGATGATAAAGTTTTTTT

Assays:
galK 1 site = experiment: red/white colony screen of editing efficiency at the galK 1 site (CREATE recombineering); assay type: cell-based, E. coli MG1655; conditions: for Editing Efficiency 1 mM Theo: induced for 3 hours with 1 mM theophylline; for Editing Efficiency no Theo: no theophylline, 3 hours recovery
Description: Candidates from this enriched library were analyzed to inform an improved library design. After three selection/counterselection steps, cells were plated on M63 selection medium^20 and 150 colonies were picked. Each isolated candidate was then transformed into unedited E. coli to screen for theophylline-responsive constructs using a red/white colony assay to quantify the percentage of edited bacteria. Colonies with an unedited galK site appear red whereas edited colonies appear white (FIG. 5). The percentage of white colonies is considered the editing efficiency. Gene editing was induced as previously described with or without adding theophylline and the editing efficiencies were compared.
The protocol established by Garst et al was mainly followed. LB containing kanamycin and chloramphenicol was inoculated with MGλ9 cells and grown overnight at 30° C. The stationary culture was diluted 100 fold in LB, containing chloramphenicol, kanamycin and 0.2% arabinose and grown to an OD600=0.4-0.6 in 25 mL LB. The culture was heat-shocked in a shaking waterbath at 42° C. for 15 minutes to induce expression of the lambda-red proteins from pSIM5. Then, the culture was washed in two volumes of ice-cold deionized water, resuspended in 500 μl deionized water and 50 μl of the cell suspension was electroporated with 200 ng of a CREATE plasmid that encodes gRNA and homology template. The transformants were recovered in 4 mL of LB, containing 0.2% arabinose and optionally 1 mM theophylline or 1 μM anhydrotetracycline (ATC), and shaken at 37° C. for 3 hours before plating on MacConkey Agar. To estimate the number of cfu, aliquots were plated on LB agar 1 hour after transformation.
In order to assess the frequency of gene editing, a red/white screen was used to visualize the introduction of a stop codon into the galK gene by CREATE. The original CREATE protocol was used for inducing gene editing and after 3 hours of recovery (with or without the agRNA ligand) a series of dilutions of the cultures were plated on MacConkey Agar plates containing 1% galactose. Bacterial colonies with a mutated galK* site appear white on the plates, whereas non-edited colonies appear red. The editing efficiency could be calculated by dividing the number of edited colonies over the total number of colonies. By comparing the editing efficiency in presence versus absence of the ligand, a dynamic range of the in vivo activity could be determined.
When screening the enriched libraries for switchable constructs, the transformants were recovered in 4 mL of LB broth, a dilution series was plated for every construct and the experiment was only carried out once due to the large volume of colonies screened (˜250 in total). When the constructs A9 and GU19 were characterized in detail, triplica of the experiment were carried out.

[1] = target: T1, Streptococcus pyogenes Cas9 (Streptococcus pyogenes serotype M1, UniProt Q99ZW2); experiment: electrophoretic mobility shift assay (EMSA) of Cas9 binding to gRNAs; conditions: presence or absence of 250 μM theophylline
T1 construct: host or cells: E. coli BL21 (DE3) Rosetta

galK1 site = experiment: co-transformation of targeting gRNA plasmid with non-targeting gRNA plasmid (simulated library)
[2] = 9:1 targeting:non-targeting mixture

T1 sequence (Q99ZW2 whole entry): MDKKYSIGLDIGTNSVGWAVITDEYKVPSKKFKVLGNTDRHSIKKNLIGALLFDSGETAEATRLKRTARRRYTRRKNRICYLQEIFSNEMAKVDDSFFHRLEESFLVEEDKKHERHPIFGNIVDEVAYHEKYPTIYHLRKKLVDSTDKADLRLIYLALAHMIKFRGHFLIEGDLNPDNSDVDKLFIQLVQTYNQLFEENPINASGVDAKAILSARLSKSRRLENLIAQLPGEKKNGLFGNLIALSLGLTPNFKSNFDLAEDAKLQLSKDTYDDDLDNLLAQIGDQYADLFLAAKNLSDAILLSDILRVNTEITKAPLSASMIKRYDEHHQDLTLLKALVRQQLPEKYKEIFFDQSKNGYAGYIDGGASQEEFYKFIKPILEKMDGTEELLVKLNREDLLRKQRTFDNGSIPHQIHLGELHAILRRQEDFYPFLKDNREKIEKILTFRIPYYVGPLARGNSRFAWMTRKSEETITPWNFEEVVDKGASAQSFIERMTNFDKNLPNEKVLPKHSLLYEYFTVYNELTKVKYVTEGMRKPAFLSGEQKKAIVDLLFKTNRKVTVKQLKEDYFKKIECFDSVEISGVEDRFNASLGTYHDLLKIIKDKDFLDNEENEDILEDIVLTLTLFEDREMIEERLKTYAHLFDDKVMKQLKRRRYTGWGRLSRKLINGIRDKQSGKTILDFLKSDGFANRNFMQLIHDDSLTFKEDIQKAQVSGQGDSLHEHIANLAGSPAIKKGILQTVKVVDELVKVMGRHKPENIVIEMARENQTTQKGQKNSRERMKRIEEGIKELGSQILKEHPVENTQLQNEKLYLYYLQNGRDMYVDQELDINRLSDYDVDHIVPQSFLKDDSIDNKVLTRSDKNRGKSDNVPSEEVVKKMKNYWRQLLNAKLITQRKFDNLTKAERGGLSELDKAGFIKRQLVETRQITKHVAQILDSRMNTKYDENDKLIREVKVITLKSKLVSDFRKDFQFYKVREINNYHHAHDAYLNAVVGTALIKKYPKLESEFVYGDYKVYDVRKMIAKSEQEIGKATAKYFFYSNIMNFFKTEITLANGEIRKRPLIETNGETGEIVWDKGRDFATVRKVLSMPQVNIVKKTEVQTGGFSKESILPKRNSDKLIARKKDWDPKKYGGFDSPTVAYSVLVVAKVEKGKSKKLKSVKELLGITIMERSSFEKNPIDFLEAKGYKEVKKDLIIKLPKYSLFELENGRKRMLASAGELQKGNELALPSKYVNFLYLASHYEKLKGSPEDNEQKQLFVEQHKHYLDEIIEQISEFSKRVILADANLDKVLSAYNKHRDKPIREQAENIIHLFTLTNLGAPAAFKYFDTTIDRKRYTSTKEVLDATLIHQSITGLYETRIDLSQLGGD

| Molecule | Editing Efficiency 1 mM Theo (galK 1 site) | Editing Efficiency no Theo (galK 1 site) | further results |
| --- | --- | --- | --- |
| A1: agRNA cassette GGGGGGCCTATTTT, SEQ ID NO: 8 (expressed or natural sequence) | 66% | 0% | apparent binding affinity to the Cas9 protein [1]: the same apparent binding affinity to the Cas9 protein as the wild type gRNA, independent of theophylline |
| GC18: agRNA cassette GATTGGCCGCAACC, SEQ ID NO: 68 (expressed or natural sequence) | 48% | 0% |  |
| GC20: agRNA cassette GCAAGGCCAACACC, SEQ ID NO: 69 (expressed or natural sequence) | 64% | 0% |  |
| GU1: agRNA cassette GACGGGCCTAATAT, SEQ ID NO: 34 (expressed or natural sequence) | 0% | 0% |  |
| GU2: agRNA cassette GCGAGGCCTACTAT, SEQ ID NO: 35 (expressed or natural sequence) | 0% | 0% |  |
| GU3: agRNA cassette GCAGGGCCTCATTT, SEQ ID NO: 36 (expressed or natural sequence) | 0% | 0% |  |
| GU4: agRNA cassette GATTGGCCATACAT, SEQ ID NO: 37 (expressed or natural sequence) | 0% | 0% |  |
| GU5: agRNA cassette GGTTGGCCTAATAT, SEQ ID NO: 38 (expressed or natural sequence) | 2% | 0% |  |
| GU6: agRNA cassette GGACGGCCAAGCAT, SEQ ID NO: 39 (expressed or natural sequence) | 1% | 0% |  |
| GU8: agRNA cassette GGCAGGCCTCTTCT, SEQ ID NO: 40 (expressed or natural sequence) | 1% | 0% |  |
| GU9: agRNA cassette GTTCGGCCCCGACT, SEQ ID NO: 41 (expressed or natural sequence) | 0% | 0% |  |
| GU10: agRNA cassette GTACGGCCCATAAT, SEQ ID NO: 42 (expressed or natural sequence) | 0% | 0% |  |
| GU11: agRNA cassette GTATGGCCTCGGAT, SEQ ID NO: 43 (expressed or natural sequence) | 0% | 0% |  |
| GU12: agRNA cassette GCCGGGCCTTTTTT, SEQ ID NO: 44 (expressed or natural sequence) | 7% | 0% |  |
| GU13: agRNA cassette GGCCGGCCAAGCAT, SEQ ID NO: 45 (expressed or natural sequence) | 6% | 0% |  |
| GU14: agRNA cassette GACTGGCCTATAAT, SEQ ID NO: 46 (expressed or natural sequence) | 2% | 0% |  |
| GU15: agRNA cassette GGACGGCCTACAAT, SEQ ID NO: 47 (expressed or natural sequence) | 11% | 0% |  |
| GU16: agRNA cassette GGGAGGCCAGCGAT, SEQ ID NO: 48 (expressed or natural sequence) | 0% | 1% |  |
| GU17: agRNA cassette GTAAGGCCGCCGAT, SEQ ID NO: 49 (expressed or natural sequence) | 0% | 0% |  |
| GU18: agRNA cassette GATTGGCCTACGGT, SEQ ID NO: 50 (expressed or natural sequence) | 1% | 0% |  |
| RG53: agRNA cassette AGTGAGCTAAAAAT, SEQ ID NO: 3 (expressed or natural sequence) | 22% | 0% |  |
| sgRNA: wild-type single guide RNA; cassette AGAGCTAGCAAGTT, SEQ ID NO: 1 (chemistry not given here) | 89%** | 85%** | plated bacteria carrying the non-targeting plasmid (galK1 site; [2]): 84.8%; plated bacteria expected to carry the targeting CREATE plasmid (galK1 site; [2]): 15.2%; # of unedited colonies carrying non-targeting gRNA plasmid (galK1 site; 16 unedited colonies picked, 20 ng non-targeting + 180 ng targeting plasmid, 1 mM theophylline): 16/16; enrichment of the non-targeting plasmids (galK1 site; listed as wild type gRNA): 8.6±0.1 fold; enrichment of the non-targeting plasmids (galK1 site; listed as wt sgRNA): ~8.5 fold; percentage of edited cells (galK1 site; plasmid mixture 90% targeting galK1, 10% non-targeting (eGFP) gRNA, listed as wild type gRNA): 14%; percentage of edited cells (galK1 site; plasmid mixture 90% targeting galK1, 10% non-targeting (eGFP) gRNA, listed as wt sgRNA): 13.5%; percentage of edited cells (galK1 site; transformed exclusively with the targeting plasmid, listed as wild type gRNA): 89%; percentage of edited cells (galK1 site; transformed exclusively with the targeting plasmid, listed as wt sgRNA): 88.9% |
| B1 |  |  | gene editing activity and ligand dependence (in words) (galK 1 site; with and without aptamer ligand): lead to gene editing with and without the aptamer-ligand |
